{"source": "paper PMC4569258", "key": {"[1]": {"biological_target": "T1, aryl hydrocarbon receptor (AhR) (Homo sapiens, UniProt P35869)", "T1 sequence (P35869 11-848)": "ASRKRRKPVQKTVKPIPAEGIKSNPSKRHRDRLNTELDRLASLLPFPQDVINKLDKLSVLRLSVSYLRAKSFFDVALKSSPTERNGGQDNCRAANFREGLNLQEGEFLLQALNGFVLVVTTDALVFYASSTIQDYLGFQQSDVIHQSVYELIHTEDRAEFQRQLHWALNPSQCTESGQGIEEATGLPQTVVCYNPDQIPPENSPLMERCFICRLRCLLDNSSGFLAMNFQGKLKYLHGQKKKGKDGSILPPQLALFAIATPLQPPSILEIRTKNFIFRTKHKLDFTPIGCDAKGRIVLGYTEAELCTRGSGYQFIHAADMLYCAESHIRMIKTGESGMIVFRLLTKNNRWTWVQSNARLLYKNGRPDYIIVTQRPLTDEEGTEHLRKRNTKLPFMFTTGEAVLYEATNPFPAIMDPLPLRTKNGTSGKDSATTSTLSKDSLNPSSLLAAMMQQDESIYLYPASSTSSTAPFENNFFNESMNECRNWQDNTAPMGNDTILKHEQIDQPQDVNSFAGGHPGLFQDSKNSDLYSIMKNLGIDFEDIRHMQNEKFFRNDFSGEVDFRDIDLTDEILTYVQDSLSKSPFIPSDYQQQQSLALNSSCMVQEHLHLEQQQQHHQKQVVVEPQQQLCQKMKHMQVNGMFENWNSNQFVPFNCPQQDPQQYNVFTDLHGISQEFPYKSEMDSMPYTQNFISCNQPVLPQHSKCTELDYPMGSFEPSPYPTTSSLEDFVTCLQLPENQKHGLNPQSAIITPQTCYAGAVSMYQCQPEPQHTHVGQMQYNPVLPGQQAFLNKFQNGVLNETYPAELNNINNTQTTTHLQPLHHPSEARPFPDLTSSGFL", "test": "cell-based", "quoted_text": "(§3) A stably transfected gene reporter cell line AZ-AHR, derived from human hepatoma HepG2 cells transfected with a construct containing several AhR binding sites upstream of a luciferase reporter gene, was used for assessment of AhR transcriptional activity [20].\n(§4) Transcriptional activity of AhR was assessed in human gene reporter cell line AZ-AHR incubated for 24 h with tested compounds.\n(§5) AZ-AHR cells were seeded in 96-well plates and stabilized for 16 h and then incubated for 24 h with enantiopure forms of atorvastatin, rosuvastatin and fluvastatin in concentration ranging from 10^−10 M to 10^−4 M in the absence (agonist mode–upper panels) or presence (antagonist mode–lower panels) of dioxin (TCDD; 5 nM). The vehicle was DMSO (0.1% v/v). After the treatments, cells were lysed and luciferase activity was measured. Treatments were performed in triplicates. Data are expressed as a fold induction of luciferase activity over control cells (agonist mode) or as a percentage of maximal activation attained by TCDD (antagonist mode). The values of EC50 and IC50 from n independent cell passages were calculated where appropriate and the average values are indicated in plots. Representative gene reporter assays are shown."}, "[2]": {"test": "MTT cytotoxicity test in AZ-AHR cells", "type": "cell-based", "settings": "human", "description": "(§1) Prior to gene reporter assays, we examined the cytotoxicity of tested compounds in AZ-AHR, AZ-GR and LS180 cell lines. For this purpose, the cells were incubated for 24 h with individual enantiomers of atorvastatin, fluvastatin and rosuvastatin at concentrations ranging from 100 pM to 100 μM. The vehicle was DMSO (0.1% v/v). After the treatment, a conventional MTT test was performed and the values of IC50 were calculated.\n(§2) Fig 2 Cytotoxicity of statin enantiomers in human cancer cell lines. […] After the treatment, a conventional MTT test was performed and absorbance was measured at 540 nm. Treatments were performed in triplicates."}, "[3]": {"test": "MTT cytotoxicity test in AZ-GR cells", "type": "cell-based", "settings": "human, AZ-GR cells (HeLa-derived GR luciferase reporter cell line)", "description": "as §1, §2"}, "[4]": {"test": "MTT cytotoxicity test in LS180 cells", "type": "cell-based", "settings": "human, LS180 colon adenocarcinoma cells", "description": "as §1, §2"}, "[5]": {"biological_target": "T2, pregnane X receptor (PXR) (Homo sapiens, UniProt O75469)", "T2 sequence (O75469 1-434)": "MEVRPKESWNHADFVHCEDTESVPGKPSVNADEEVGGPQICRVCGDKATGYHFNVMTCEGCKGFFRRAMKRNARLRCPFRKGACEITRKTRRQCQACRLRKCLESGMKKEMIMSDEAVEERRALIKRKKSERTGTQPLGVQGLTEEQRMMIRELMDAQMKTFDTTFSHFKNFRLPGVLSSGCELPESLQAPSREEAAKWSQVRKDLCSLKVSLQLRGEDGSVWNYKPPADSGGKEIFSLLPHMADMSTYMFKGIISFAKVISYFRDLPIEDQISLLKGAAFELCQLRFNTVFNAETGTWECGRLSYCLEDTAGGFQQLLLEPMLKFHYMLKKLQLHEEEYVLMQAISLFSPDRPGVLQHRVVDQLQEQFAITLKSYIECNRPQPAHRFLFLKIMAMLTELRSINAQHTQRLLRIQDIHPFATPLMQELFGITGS", "settings": "100 μM concentration, agonist mode"}, "CYP2C9": {"test_system": "CYP2C9", "set-up": "method as in PMID 8737761", "settings": "ratio to (+)3R,5S-fluvastatin; cited from earlier work"}, "[6]": {"set-up": "method as in PMID 19033449, PMID 16480934", "settings": "humans, ratio to (+)3R,5S-fluvastatin; cited from earlier work"}, "[7]": {"biological_target": "T1, aryl hydrocarbon receptor (AhR)", "test": "AhR gene reporter assay in AZ-AHR cells", "settings": "24 h", "quoted_text": "as §3, §4, §5"}}, "data": [{"compound": "CC(C)n1c(C=CC(O)CC(O)CC(=O)O)c(-c2ccc(F)cc2)c2ccccc21", "note": "(stereo not drawn) [3S5R-fluvastatin, 3S5R- fluvastatin]", "values": [{"measurement": "EC50", "setting": "[1]", "result": "14.4 ± 4.2", "unit": "µM"}, {"measurement": "IC50 at 24 h", "setting": "[2]", "result": "> 100", "unit": "µM"}, {"measurement": "IC50 at 24 h", "setting": "[3]", "result": "> 100", "unit": "µM"}, {"measurement": "IC50 at 24 h", "setting": "[4]", "result": "> 100", "unit": "µM"}, {"measurement": "efficacy: average induction of PXR luciferase activity", "setting": "[5]", "result": "approx. 5 fold"}, {"measurement": "Ki values of CYP2C9 inhibition compared to (+)3R,5S-fluvastatin", "setting": "CYP2C9", "result": "four to five times higher"}, {"measurement": "AUC value compared to (+)3R,5S-fluvastatin", "setting": "[6]", "result": 1.8, "unit": "times"}, {"measurement": "IC50", "setting": "[7]; AhR antagonist IC50, antagonist mode, in presence of TCDD 5 nM", "result": "> 100", "unit": "µM"}, {"measurement": "effect on AhR-dependent luciferase activity (agonist mode), in words", "setting": "[7]; agonist mode", "result": "slightly increased luciferase activity"}]}]}
